Numbered stars: 1 amine (or outer) side, 2 acyl side, 3 side chain; on linkers, the order of the positions; unused ones are H or OH. Peptide text beside a SMILES is read from it. * marks the point of attachment. X1 = Brc1ccc2c(c1)-c1cc(N*)ccc1C2; Suc = O=C(CCC(=O)[*:2])[*:1]
Tested on: Aphids
Assay: Feeding with peptides in artificial diet, mortality without other stress
Type: in vivo, Myzus persicae
Conditions: ingestion via artificial diet
Protocol: A standard artificial diet for M. persicae was produced as described in Van Emden (2009) and provided the basal diet to which neuropeptide analogues were added for screening purposes. Neuropeptide analogues were diluted individually in the artificial diet to a pre-determined recommended concentration as follows: 1895 (3.5×10^−5 M) and 2019 (2.0×10^−5 M).
Feeding apparatus were constructed using a set-up developed by Sadeghi et al (2009). For this, a piece of Parafilm was stretched over a Plexiglas ring (h=4 cm, Ø=3 cm) and 100 μl of the artificial diet containing the desired neuropeptide analogue was pipette onto the Parafilm membrane. A second piece of Parafilm, stretched to 4 times the original thickness, was stretched over the original layer, sandwiching the artificial diet between two layers of Parafilm. A strip of Parafilm was wrapped around the circumference of the Plexiglas ring, sealing in the diet. A plastic ring (h=1.2 cm, Ø=3.4 cm) was subsequently placed over the Parafilm layer, creating a walled chamber in which to house test aphids in contact with the Parafilm layer containing the artificial diet. Finally, a small Petri dish (h=1 cm, Ø=3.6 cm), modified for ventilation with net cloth, was placed on top of each feeding apparatus to prevent aphid escape.
To obtain aphids for use in experiments, reproducing anholocyclic adults were placed on individual excised leaves of Chinese cabbage at densities of 5 adults per leaf and allowed to reproduce for 24 h. The stem of each excised leaf was held within a 0.5 mL Eppendorf tube containing water via a punctured hole in the Eppendorf lid, and placed individually within a microcage (L=4 cm, Ø=9.5 cm). Following 24 h, adults were removed and resultant first instar nymphs (<1 day old and synchronised in age to within 24 h) retained. Nymphs were allowed to develop on the Chinese cabbage for 5 days. On day 5, (3rd instar) nymphs were transferred onto the artificial diet containing a neuropeptide analogue at densities of 1 per feeding chamber and monitored daily until death. Aphids were transferred to fresh artificial diet (containing neuropeptide analogue) every 5 days. Life history traits recorded include age at first reproduction, number of nymphs produced per 24 h period, and lifespan. From these parameters, lifetime fecundity and daily fecundity were calculated. Control groups were set up involving aphids reared on the host plant, an artificial diet without a neuropeptide analogue, and an artificial diet containing the native CAPA neuropeptide.
Aphids were reared on artificial diet, alone or supplemented with peptide 2129, 2315, 2316 or 2320. A control group (no test peptide) was reared on a host plant. No other stress conditions were applied.
For peptides 2315, 2316 and 2320, mortality was assessed at 48, 72, 96, 120 and 144 hours. A group of 9 or 10 insects was used for each time point, and all experiments were performed at least 4 times.

## CC[C@H](C)[C@H](NC(=O)[C@H](CCCNC(=N)N)NC(=O)[C@@H]1CCCN1C(=O)[C@@H](NC(=O)[C@H](C)NC(=O)CCC(=O)Nc1ccc2c(c1)-c1cc(Br)ccc1C2)[C@@H](C)O)C(N)=O [compound 2129, 2Abf-Suc-ATPRI-NH2] ({X1-Suc}-ATPRI-NH2)
After 24 h
  change in mortality relative to the control: 19.7%
  percentage survival: 73.8%
After the first 24 h
  effect on aphid longevity: highly significant reduction in aphid longevity
